# Assay results from patent US20250281497A1, “FUSED AMINO PYRIMIDINE COMPOUNDS FOR TREATMENT OF SEIZURE DISORDERS” (Ovid Therapeutics Inc., priority 2024, published 2025).
# Assays:
# [1] = system: PTZ induced motor seizures; assay: Pentylenetetrazol (PTZ) induced convulsions; assay type: in vivo, mice; conditions: 12.5 mg/kg IV pretreatment
# [2] = system: panel of 144 protein kinases; assay: SelectScreen panel of 144 protein kinases; assay type: biochemical; conditions: includes PKC isoforms, OSR1, SPAK, WNK
# Procedure: Aliquots of HEK-293 cells expressing KCC2 were exposed to 30 μM SSA, heated from 37-55° C. The remaining level of soluble native KCC2 at each temperature was measured by immunoblotting and normalized to the level seen at 37° C. which was given a value of 1. […] This panel included protein kinase C isoforms, OSR1, SPAK (STK39) and with-no-lysine kinases (WNK), all of which phosphorylate KCC2 on multiple residues to indirectly modify its activity (Kahle et al., 2013, supra; Smalley et al., 2020, supra).
# NKCC1 = molecular target: T1, NKCC1 (Homo sapiens, UniProt P55011); assay: Tl+ assay, HEK-293 cells expressing NKCC1; assay type: cell-based; conditions: read-out: concentration at which effects on NKCC1 were seen (EC50 chart FIG. 1G)
# T1 construct: expressed in transfected cells; host or cells: HEK-293
# T1 sequence (P55011 1-1212): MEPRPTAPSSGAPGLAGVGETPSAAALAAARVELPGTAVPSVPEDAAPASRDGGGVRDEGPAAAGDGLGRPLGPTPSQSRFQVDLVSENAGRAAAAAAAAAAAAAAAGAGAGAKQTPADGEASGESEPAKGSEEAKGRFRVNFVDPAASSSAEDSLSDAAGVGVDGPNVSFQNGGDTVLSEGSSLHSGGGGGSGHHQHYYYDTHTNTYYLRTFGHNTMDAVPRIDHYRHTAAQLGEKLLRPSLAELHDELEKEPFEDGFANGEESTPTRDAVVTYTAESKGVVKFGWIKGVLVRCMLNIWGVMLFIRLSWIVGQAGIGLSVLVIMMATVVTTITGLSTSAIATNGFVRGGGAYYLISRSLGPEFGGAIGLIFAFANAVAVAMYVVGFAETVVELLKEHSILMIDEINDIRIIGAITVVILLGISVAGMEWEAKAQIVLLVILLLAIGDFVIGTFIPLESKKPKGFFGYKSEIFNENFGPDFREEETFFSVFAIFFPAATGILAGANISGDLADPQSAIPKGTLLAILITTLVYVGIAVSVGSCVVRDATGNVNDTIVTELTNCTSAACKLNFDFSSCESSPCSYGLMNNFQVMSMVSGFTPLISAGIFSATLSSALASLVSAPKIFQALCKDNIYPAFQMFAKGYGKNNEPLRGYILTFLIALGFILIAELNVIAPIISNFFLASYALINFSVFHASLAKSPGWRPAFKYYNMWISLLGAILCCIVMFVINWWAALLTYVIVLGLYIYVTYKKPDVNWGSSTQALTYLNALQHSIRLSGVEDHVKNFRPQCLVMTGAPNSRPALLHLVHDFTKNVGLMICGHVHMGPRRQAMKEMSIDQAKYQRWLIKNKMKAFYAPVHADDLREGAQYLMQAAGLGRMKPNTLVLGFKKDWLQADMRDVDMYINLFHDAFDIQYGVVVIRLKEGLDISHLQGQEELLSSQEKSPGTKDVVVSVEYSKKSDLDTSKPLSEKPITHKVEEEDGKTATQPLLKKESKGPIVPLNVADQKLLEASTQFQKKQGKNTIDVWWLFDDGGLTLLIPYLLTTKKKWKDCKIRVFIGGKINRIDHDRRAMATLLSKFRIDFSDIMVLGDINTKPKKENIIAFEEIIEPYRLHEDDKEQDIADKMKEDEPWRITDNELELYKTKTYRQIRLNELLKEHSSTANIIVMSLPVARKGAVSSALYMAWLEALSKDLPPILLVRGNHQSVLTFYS
# Procedure: FLIPR TI Flux assay. HEK-293 cells were washed with HBSS, and then incubated with loading buffer containing TI sensitive fluorescent dye (https://www.moleculardevices.com), 20 μM bumetanide 20 μM ouabain and 2.5 mM probenecid for 1 h at room temperature (RT) under control conditions or with drugs in the dark using a FlexStation 3 microplate reader (Molecular Devices) and imaged […] for 30 min. Stimulus buffer was added containing 5 mM K^+/0.5 mM Tl^+ and cells were imaged every 1.5 over a 190 second time course The initial rate Tl^+ uptake (Relative Fluorescence Units (RFU) per second) was determined following addition of the stimulus buffer as outlined previously (Conway et at, 2017, supra) (Lee et at, 2022, supra).
# Several studies have shown that the activity and plasma membrane accumulation of KCC2 is potentiated via phosphorylation of S940, a process mediated by the activity of protein kinase C and protein phosphatase 1 (Lee et al., 2011, supra; Lee et al., J Biol Chem 282, 29777-29784 (2007); Moore et al., Proc. Natl. Acad. Sci. U.S.A. 115, 10166-10171 (2018); Moore et al., Trends Neurosci. 40, 555-571 (2017); Silayeva et al., Proc. Natl. Acad. Sci. U.S.A. 112, 3523-3528 (2015)). […] Compared to KCC2, effects on KCC3, KCC4, and NKCC1 were only seen at concentrations more than 35-fold that of KCC2 (>100 μM) (FIG. 1G).
structure (smiles),measurement,setting,value
"C[C@@H]1CN(c2nc3c(c(Nc4ccc(C5CCCCC5)cc4)n2)COC3)CCO1 [Compound A, (R)—N-(4-cyclohexylphenyl)-2-(2-methylmorpholino)-5,7-dihydrofuro[3,4-d]pyrimidin-4-amine]",dose of PTZ required to induce forelimb clonus,[1]; Control=51.5±3.1,56.3 ± 3.3 mg/kg
same,dose of PTZ required to induce hindlimb clonus,[1]; Control=84.5±5.1,137.4 ± 7.5 mg/kg
same,activity of panel of 144 protein kinases,[2],did not modify the activity of this kinase panel
same,EC50,NKCC1,> 100 µM
